Results reported in patent US5703083A, “N-aminoalkyl-1-biphenylenyl-2-carboxamides; new dopamine receptor subtype specific ligands” (Neurogen Corporation, priority 1996, dated 1997).
Structures can show the parent of a compound that is named as a salt.

Legend:
[1] = biological target: T1, D3 receptors from African Green monkey (Chlorocebus aethiops, UniProt P52703); assay: D3 receptor binding (displacement of 3H-YM 09151-2); settings: COS cells with recombinant D3 receptors; 0.5 nM 3H-YM 09151-2; nonspecific binding with 1 mM spiperone
T1 construct: expressed in transfected cells; host or cells: COS cells
Description: (§1) Pellets of COS cells containing recombinantly produced D2 or D3 receptors from African Green monkey were used for the assays. The sample is homogenized in 100 volumes (w/vol) of 0.05M Tris HCI buffer at 4° C and pH 7.4. The sample is then centfifuged at 30,000×g and resuspended and rehomogenized. The sample is then centdfuged as described and the final tissue sample is frozen until use. The tissue is resuspended 1:20 (wt/vol) in 0.05M Tris HCl buffer containing 100 mM NaCl.
(§2) Incubations are carried out at 48° C and contain 0.4 ml of tissue sample, 0.5 nM ^3 H-YM 09151-2 and the compound of interest in a total incubation of 1.0 ml. Nonspecific binding is defined as that binding found in the presence of 1 mM spiperone; without further additions, nonspecific binding is less than 20% of total binding. The binding characteristics of representative compounds of the invention for D2 and D3 receptor subtypes are shown in Table 2 for rat striatal homogenates.

[2] = biological target: D2 receptors from African Green monkey; assay: D2 receptor binding (displacement of 3H-YM 09151-2); settings: COS cells with recombinant D2 receptors; 0.5 nM 3H-YM 09151-2; nonspecific binding with 1 mM spiperone
Description: as §1, §2

T1 sequence (P52703 whole entry): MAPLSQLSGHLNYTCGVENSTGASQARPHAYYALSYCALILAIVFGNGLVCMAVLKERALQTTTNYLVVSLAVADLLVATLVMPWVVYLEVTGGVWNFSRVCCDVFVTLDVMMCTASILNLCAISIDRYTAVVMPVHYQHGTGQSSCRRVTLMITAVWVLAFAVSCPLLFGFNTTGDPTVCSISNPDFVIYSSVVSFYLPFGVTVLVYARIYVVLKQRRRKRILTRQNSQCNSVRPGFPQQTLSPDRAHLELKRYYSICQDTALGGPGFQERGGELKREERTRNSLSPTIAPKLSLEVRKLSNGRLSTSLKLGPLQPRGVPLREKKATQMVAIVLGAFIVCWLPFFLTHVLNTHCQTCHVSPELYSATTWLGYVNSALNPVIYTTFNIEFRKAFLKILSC

| Ki [1] [nM] | Ki [2] [nM] | SMILES |
| --- | --- | --- |
| 5 | 323 | COc1ccccc1N1CCN(CCCCNC(=O)c2ccc3c(c2)-c2ccccc2-3)CC1 [Compound 1, 1-(2-Methoxyphenyl)-4-{4-[N-(1-biphenylene-2-carboxamido)]butyl}piperazine] |
| 15 | > 100 | O=C(NCCCCN1CCN(c2nccc3ccccc23)CC1)c1ccc2c(c1)-c1ccccc1-2 [Compound 4, 1-(1-Isoquinolyl)-4-{4-[N-(1-biphenylene-2-carboxamido)]butyl}piperazine d ihydrochloride] |
| 3 | 138 | O=C(NCCCCN1CCN(c2cccc3ccccc23)CC1)c1ccc2c(c1)-c1ccccc1-2 [Compound 3, 1-(1-Napthyl)-4-{4-[N-(1-biphenylene-2-carboxamido)]butyl}piperazine dihydrochloride] |
